Experimental findings from patent US10072001B2, “Tank-binding kinase inhibitor compounds” (Gilead Sciences, Inc., priority 2014, dated 2018) are described below.

SMILES strings stand for the structures.

Test [1] deals with IKKε (Homo sapiens (Human), UniProt Q14164). In words: TR-FRET kinase assay, IKKε. It counts as biochemical. The settings on record: full length recombinant IKKε 0.3 nM, 2x Km ATP, 1 μM peptide, 240 min at 25° C.; geometric mean of minimum four determinations. From the text:
Biological Assay for TBK1 and IKKs:

The target of test [2] is TBK1 (Homo sapiens (Human), UniProt Q9UHD2). The test can be described thus: TR-FRET kinase assay, TBK1. As to conditions: read-out: TBK1-IC50; full length recombinant TBK1 2.5 nM, 2x Km ATP, 1 μM peptide, 240 min at 25° C.; geometric mean of minimum four determinations.
TBK1, sequence (Q9UHD2 whole entry): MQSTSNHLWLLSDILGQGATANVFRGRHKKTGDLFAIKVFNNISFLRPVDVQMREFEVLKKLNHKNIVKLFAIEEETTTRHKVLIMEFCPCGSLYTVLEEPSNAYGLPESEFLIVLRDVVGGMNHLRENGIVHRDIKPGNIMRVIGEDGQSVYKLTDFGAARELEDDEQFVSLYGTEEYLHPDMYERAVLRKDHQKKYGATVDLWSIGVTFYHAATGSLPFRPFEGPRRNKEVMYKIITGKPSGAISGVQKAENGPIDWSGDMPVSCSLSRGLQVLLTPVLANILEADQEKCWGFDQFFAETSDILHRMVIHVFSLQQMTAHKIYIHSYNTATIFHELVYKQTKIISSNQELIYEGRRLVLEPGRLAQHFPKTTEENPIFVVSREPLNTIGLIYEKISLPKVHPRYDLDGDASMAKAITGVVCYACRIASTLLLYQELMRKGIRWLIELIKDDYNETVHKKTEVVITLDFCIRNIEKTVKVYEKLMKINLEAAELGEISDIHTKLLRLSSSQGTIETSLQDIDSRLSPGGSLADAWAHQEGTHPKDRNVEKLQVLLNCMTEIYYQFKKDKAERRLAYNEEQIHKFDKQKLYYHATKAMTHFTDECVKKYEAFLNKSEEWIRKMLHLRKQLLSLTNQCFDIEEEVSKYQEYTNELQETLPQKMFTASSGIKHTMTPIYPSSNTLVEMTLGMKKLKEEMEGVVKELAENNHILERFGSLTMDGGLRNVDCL

IKKε, sequence (Q14164 whole entry): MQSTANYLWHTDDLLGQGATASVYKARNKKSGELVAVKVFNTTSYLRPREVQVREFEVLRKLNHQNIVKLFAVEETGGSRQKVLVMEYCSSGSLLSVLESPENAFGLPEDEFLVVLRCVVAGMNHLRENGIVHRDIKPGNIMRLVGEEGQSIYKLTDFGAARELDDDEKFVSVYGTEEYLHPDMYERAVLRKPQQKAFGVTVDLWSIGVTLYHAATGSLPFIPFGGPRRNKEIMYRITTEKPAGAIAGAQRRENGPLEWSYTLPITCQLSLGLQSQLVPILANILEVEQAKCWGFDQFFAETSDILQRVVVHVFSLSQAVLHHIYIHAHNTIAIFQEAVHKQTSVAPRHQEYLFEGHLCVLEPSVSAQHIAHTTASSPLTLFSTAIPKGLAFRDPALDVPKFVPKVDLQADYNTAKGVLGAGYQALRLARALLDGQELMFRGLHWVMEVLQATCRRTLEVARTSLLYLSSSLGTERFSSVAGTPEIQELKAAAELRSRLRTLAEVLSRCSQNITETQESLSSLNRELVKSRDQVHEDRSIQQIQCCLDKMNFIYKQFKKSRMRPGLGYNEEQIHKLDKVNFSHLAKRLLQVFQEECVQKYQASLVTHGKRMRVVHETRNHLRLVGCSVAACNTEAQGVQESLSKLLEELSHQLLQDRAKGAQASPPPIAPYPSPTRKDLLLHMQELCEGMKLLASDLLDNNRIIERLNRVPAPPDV

`N#Cc1cc(-c2ncnc3[nH]c(-c4ccc(Cn5ccnc5)cc4)cc23)ccc1OC1CCOCC1` [Example 114, 5-(6-(4-((1H-imidzol-1-yl)methyl)phenyl)-7H-pyrrolo[2,3-d]pyrimidin-4-yl)-2-((tetrahydro-2H-pyran-4-yl)oxy)benzonitrile]: the IC50 – broadly, the concentration that inhibits the measured activity by half – worked out at 5.79 nM in test [1] and 5.13 nM in test [2].

`N#Cc1cc(-c2ccnc3[nH]c(-c4ccc(N5CCOCC5)cc4)cc23)ccc1CN1CCOCC1` [Example 70, 2-(morpholinomethyl)-5-(2-(4-morpholinophenyl)-1H-pyrrolo[2,3-b]pyridin-4-yl)benzonitrile]: the values for the IC50 in test [1] and in test [2] were 132 nM and 10.5 nM, respectively.

`N#Cc1cc(-c2ncnc3[nH]c(-c4ccc(OCCN5CCCC5)cc4)nc23)ccc1OC1CCN(C(=O)CO)CC1` [Example 233, 2-((1-(2-hydroxyacetyl)piperidin-4-yl)oxy)-5-(8-(4-(2-(pyrrolidin-1-yl)ethoxy)phenyl)-9H-purin-6-yl)benzonitrile]: the IC50 in test [1] is 2.04 nM; in test [2] it was 3.33 nM.

Turning to `Cc1ccc(-c2ccnc3[nH]c(-c4ccc(N5CCOCC5)cc4)cc23)cc1C#N` [Example 69, 2-methyl-5-(2-(4-morpholinophenyl)-1H-pyrrolo[2,3-b]pyridin-4-yl)benzonitrile], the half-inhibitory concentration (IC50) in test [1] was above 1000 nM; in test [2], 79.7 nM.

Regarding `N#Cc1cc(-c2ncnc3[nH]c(-c4ccc(C5CCN(CC(F)F)CC5)cc4)nc23)ccc1OC1CCN(C=O)CC1` [Example 258, 5-(8-(4-(1-(2,2-difluoroethyl)piperidin-4-yl)phenyl)-9H-purin-6-yl)-2-((1-formylpiperidin-4-yl)oxy)benzonitrile], the results for the IC50 in test [1] and in test [2] were 12.9 nM and 6.4 nM, respectively.

Turning to `N#Cc1cc(-c2ncnc3[nH]c(-c4ccc(N5CCOCC5)cc4)nc23)ccc1OC1CCN(C(=O)C(F)F)CC1` [Example 248, 2-((1-(2,2-difluoroacetyl)piperidin-4-yl)oxy)-5-(8-(4-morpholinophenyl)-9H-purin-6-yl)benzonitrile], the results for the IC50 in test [1] and in test [2] were 9.82 nM and 3.63 nM, respectively.

Take `N#Cc1cc(-c2ncnc3[nH]c(-c4ccc(C(=O)N5CCCC5)cc4)cc23)ccc1OC1CCN(C(=O)CO)CC1` [Example 162, 2-((1-(2-Hydroxyacetyl)piperidin-4-yl)oxy)-5-(6-(4-(pyrrolidine-1-carbonyl)phenyl)-7H-pyrrolo[2,3-d]pyrimidin-4-yl)benzonitrile]: the results for the concentration for half-maximal inhibition (IC50) in test [1] and in test [2] were 2.68 nM and 1.48 nM, respectively.

In the case of `N#Cc1cccc(-c2ccnc3[nH]c(-c4ccc(N5CCOCC5)cc4)cc23)c1` [Example 79, 3-(2-(4-morpholinophenyl)-1H-pyrrolo[2,3-b]pyridin-4-yl)benzonitrile], the half-inhibitory concentration (IC50) was above 1000 nM in test [1] and 28.2 nM in test [2].

Turning to `CC(C)(O)c1ccc(-c2cc3c(-c4ccc(O[C@@H]5CCNC5)c(C#N)c4)ccnc3[nH]2)cc1` [Example 151, (R)-5-(2-(4-(2-hydroxypropan-2-yl)phenyl)-1H-pyrrolo[2,3-b]pyridin-4-yl)-2-(pyrrolidin-3-yloxy)benzonitrile], the concentration for half-maximal inhibition (IC50) in test [1] is 120 nM; in test [2], 43 nM.

Take `CC(C)(O)c1ccc(-c2cc3c(-c4ccc(CN5CCOCC5)c(C#N)c4)ncnc3[nH]2)cc1` [Example 111, 5-(6-(4-(2-hydroxypropan-2-yl)phenyl)-7H-pyrrolo[2,3-d]pyrimidin-4-yl)-2-(morpholinomethyl)benzonitrile]: the IC50 was found to be 279 nM in test [1] and 36.9 nM in test [2].

As to `N#Cc1cc(-c2ccnc3[nH]c(-c4ccc(N5CCOCC5)cc4)cc23)ccc1OC1COC1` [Example 235, 5-(2-(4-morpholinophenyl)-1H-pyrrolo[2,3-b]pyridin-4-yl)-2-(oxetan-3-yloxy)benzonitrile], the figures for the half-maximal inhibitory concentration (IC50) in test [1] and in test [2] were 103 nM and 9.27 nM, respectively.

With `N#Cc1cc(-c2ccnc3[nH]c(C4=CCNC4)cc23)ccc1OC1CCOCC1` [Example 37, 5-(2-(2,5-dihydro-1H-pyrrol-3-yl)-1H-pyrrolo[2,3-b]pyridin-4-yl)-2-((tetrahydro-2H-pyran-4-yl)oxy)benzonitrile], the IC50 is 46.3 nM in test [1] and 13.4 nM in test [2].

Consider `N#Cc1cc(-c2ccnc3[nH]c(-c4ccc(-n5cccn5)cc4)cc23)ccc1OC1CCOCC1` [Example 177, 5-(2-(4-(1H-pyrazol-1-yl)phenyl)-1H-pyrrolo[2,3-b]pyridin-4-yl)-2-((tetrahydro-2H-pyran-4-yl)oxy)benzonitrile], for which the IC50 in test [1] worked out at 1000 nM; in test [2], 33.5 nM.

As for `CS(=O)(=O)c1ccc(-c2cc3c(-c4ccc(OC5CCOCC5)c(C#N)c4)ccnc3[nH]2)cc1` [Example 42, 5-(2-(4-(methylsulfonyl)phenyl)-1H-pyrrolo[2,3-b]pyridin-4-yl)-2-((tetrahydro-2H-pyran-4-yl)oxy)benzonitrile], the 50% inhibitory concentration (IC50) in test [1] was 6.42 nM; in test [2], 3.75 nM.

Consider `N#CCC(=O)N1CCC(Oc2ccc(-c3ccnc4[nH]c(-c5ccc(N6CCOCC6)cc5)cc34)cc2C#N)CC1` [Example 20, 2-((1-(2-cyanoacetyl)piperidin-4-yl)oxy)-5-(2-(4-morpholinophenyl)-1H-pyrrolo[2,3-b]pyridin-4-yl)benzonitrile], for which the IC50 in test [1] was determined as 27.5 nM; in test [2], 9.25 nM.

As for `N#Cc1cc(-c2ccnc3[nH]c(C(=O)N4CCCC4)cc23)ccc1OC1CCOCC1` [Example 117, 5-(2-(pyrrolidine-1-carbonyl)-1H-pyrrolo[2,3-b]pyridin-4-yl)-2-((tetrahydro-2H-pyran-4-yl)oxy)benzonitrile], the IC50 in test [1] stood at 262 nM; in test [2], 383 nM.

As to `N#Cc1cc(-c2ncnc3[nH]c(-c4ccc(N5CCOCC5)cc4)cc23)ccc1OC1CCS(=O)(=O)CC1` [Example 240, 2-((1,1-dioxidotetrahydro-2H-thiopyran-4-yl)oxy)-5-(6-(4-morpholinophenyl)-7H-pyrrolo[2,3-d]pyrimidin-4-yl)benzonitrile], the IC50 in test [1] turned out to be 33.8 nM; in test [2], 3.82 nM.

In the case of `CC(=O)N1CC(Oc2ccc(-c3ccnc4[nH]c(-c5ccc(N6CCOCC6)cc5)cc34)cc2C#N)C1` [Example 153, 2-((1-acetylazetidin-3-yl)oxy)-5-(2-(4-morpholinophenyl)-1H-pyrrolo[2,3-b]pyridin-4-yl)benzonitrile], the 50% inhibitory concentration (IC50) in test [1] was found to be 195 nM; in test [2], 51.1 nM.

On to `CC(C)(O)c1ccc(-c2nc3c(-c4ccc(OC5CCOCC5)c(C#N)c4)ncnc3[nH]2)cc1` [Example 228, 5-(8-(4-(2-hydroxypropan-2-yl)phenyl)-9H-purin-6-yl)-2-((tetrahydro-2H-pyran-4-yl)oxy)benzonitrile], for which the IC50 was 14.5 nM in test [1] and 1.62 nM in test [2].

Take `COc1ccc(C#N)cc1-c1ncnc2[nH]c(-c3ccc(N4CCOCC4)cc3)cc12` [Example 133, 4-methoxy-3-(6-(4-morpholinophenyl)-7H-pyrrolo[2,3-d]pyrimidin-4-yl)benzonitrile]: the IC50 in test [1] and in test [2] was 1000 nM in each case.

For the compound `COc1ccc(-c2cc3c(-c4ccc(OC5CCN(C(=O)CO)CC5)c(C#N)c4)ncnc3[nH]2)cc1` [Example 126, 2-((1-(2-hydroxyacetyl)piperidin-4-yl)oxy)-5-(6-(4-methoxyphenyl)-7H-pyrrolo[2,3-d]pyrimidin-4-yl)benzonitrile], the figures for the IC50 in test [1] and in test [2] were 3.29 nM and 1.34 nM, respectively.
